Assay results as given in ChEMBL document CHEMBL3352500, “Identification and characterization of an anti-pseudomonal dichlorocarbazol derivative displaying anti-biofilm activity” (Bioorg Med Chem Lett, 2014).
In brackets after ≈: the same amount, converted by molar mass. Activity calls are given as the source filed them. No cut-off for these calls is given here.

Legend:
Porphyromonas gingivalis [1] = assay: Antibacterial activity against Porphyromonas gingivalis ATCC 33277; assay type: functional
Pseudomonas aeruginosa [2] = assay: Antibacterial activity against Pseudomonas aeruginosa after 24 hrs by two-fold broth microdilution method; assay type: functional
Pseudomonas aeruginosa [3] = assay: Bactericidal activity against Pseudomonas aeruginosa; assay type: functional
Pseudomonas aeruginosa [4] = assay: Antibacterial activity against Pseudomonas aeruginosa YM64 expressing mexAB-oprM::FRT/mexXY::FRT/mexCD-oprJ::FRT/mexEF-oprN::FRT deletion mutant; assay type: functional
Pseudomonas aeruginosa [5] = assay: Antibacterial activity against wild-type Pseudomonas aeruginosa YM; assay type: functional
Pseudomonas aeruginosa [6] = assay: Antibacterial activity against ticarcillin-resistant Pseudomonas aeruginosa clinical isolate PA08; assay type: functional
Pseudomonas aeruginosa [7] = assay: Antibacterial activity against ticarcillin-resistant Pseudomonas aeruginosa clinical isolate PA53; assay type: functional
Pseudomonas aeruginosa [8] = assay: Antibacterial activity against ticarcillin-resistant Pseudomonas aeruginosa clinical isolate PA129; assay type: functional
Pseudomonas aeruginosa [9] = assay: Antibacterial activity against ticarcillin/piperacillin-resistant Pseudomonas aeruginosa clinical isolate PA346; assay type: functional
Pseudomonas aeruginosa [10] = assay: Antibacterial activity against ticarcillin-resistant Pseudomonas aeruginosa clinical isolate PA424; assay type: functional
Pseudomonas aeruginosa [11] = assay: Antibacterial activity against ticarcillin/cefepime-resistant Pseudomonas aeruginosa clinical isolate PA1250; assay type: functional
Pseudomonas aeruginosa [12] = assay: Antibacterial activity against ticarcillin/piperacillin/ceftazidime/cefepime-resistant Pseudomonas aeruginosa clinical isolate PA1255; assay type: functional
Pseudomonas aeruginosa [13] = assay: Antibacterial activity against Pseudomonas aeruginosa clinical isolate PA1256; assay type: functional
Pseudomonas aeruginosa [14] = assay: Antibacterial activity against Pseudomonas aeruginosa clinical isolate PA1270; assay type: functional
Pseudomonas aeruginosa [15] = assay: Antibacterial activity against ticarcillin-resistant Pseudomonas aeruginosa clinical isolate PA1271; assay type: functional
Pseudomonas aeruginosa [16] = assay: Antibacterial activity against Pseudomonas aeruginosa PA14; assay type: functional
Escherichia coli [17] = assay: Antibacterial activity against Escherichia coli TG1; assay type: functional
Staphylococcus aureus [18] = assay: Antibacterial activity against Staphylococcus aureus SH1000; assay type: functional
[19] = test system: Staphylococcus epidermidis; assay: Antibacterial activity against Staphylococcus epidermidis RP62A; assay type: functional
Pseudomonas aeruginosa [20] = assay: Antibiofilm activity against Pseudomonas aeruginosa PA14 after 24 hrs; assay type: functional
Escherichia coli [21] = assay: Antibiofilm activity against Escherichia coli TG1 after 24 hrs; assay type: functional
Staphylococcus aureus [22] = assay: Antibiofilm activity against Staphylococcus aureus SH1000 after 24 hrs; assay type: functional
[23] = test system: Staphylococcus epidermidis; assay: Antibiofilm activity against Staphylococcus epidermidis RP62A after 72 hrs; assay type: functional
Porphyromonas gingivalis [24] = assay: Antibiofilm activity against Porphyromonas gingivalis ATCC 33277 after 72 hrs; assay type: functional
Pseudomonas aeruginosa [25] = assay: Antibiofilm activity against Pseudomonas aeruginosa on smooth titanium disc at 3.7 ug/ml after 19 hrs by confocal laser scanning microscopy; assay type: functional, organism-based
Pseudomonas aeruginosa [26] = assay: Antibiofilm activity against Pseudomonas aeruginosa on smooth titanium disc assessed as reduction in total area fraction at 1 to 12 ug/ml after 19 hrs by confocal laser scanning microscopy; assay type: functional
Pseudomonas aeruginosa [27] = assay: Antibiofilm activity against Pseudomonas aeruginosa on smooth titanium disc assessed as dead cells in biofilm at 12 ug/ml after 19 hrs by confocal laser scanning microscopy relative to control; assay type: functional, organism-based
Pseudomonas aeruginosa [28] = assay: Antibiofilm activity against Pseudomonas aeruginosa assessed as decrease of culturable cells in biofilm at >= 4.63 ug/ml after 24 hrs by plate counting method; assay type: functional, organism-based
[29] = Cytotoxicity against human osteoblasts assessed as cell viability at 4.63 ug/ml after 2 hrs; assay type: cell-based, Osteoblast; conditions: read-out: Activity
[30] = Cytotoxicity against human mesenchymal stem cells assessed as cell viability at 4.63 ug/ml after 2 hrs; assay type: cell-based; conditions: read-out: Activity
[31] = Cytotoxicity against human endothelial cells at 4.63 ug/ml after 2 hrs; assay type: cell-based; conditions: endothelial cell
[32] = Cytotoxicity against human endothelial cells assessed as effect on tube formation at 4.63 ug/ml after 4 hrs; assay type: cell-based; conditions: endothelial cell

Molecule `N=C(NCCCCCCNC(=N)NC(=N)Nc1ccc(Cl)cc1)NC(=N)Nc1ccc(Cl)cc1` [CHLORHEXIDINE] has an MIC (Porphyromonas gingivalis [1]) of 4 µg/mL (≈ 7.91 µM).

`CN(C)CC(O)Cn1c2ccc(Br)cc2c2cc(Br)ccc21` (stereo not drawn) gave an MIC (Pseudomonas aeruginosa [2]) of 18.5 µg/mL (≈ 43.4 µM).

Work on `CCC(C)NCC(O)Cn1c2ccc(Cl)cc2c2cc(Cl)ccc21` (stereo not drawn) yielded an MIC (Pseudomonas aeruginosa [2]) of 18.5 µg/mL (≈ 50.6 µM), an MBC (Pseudomonas aeruginosa [3]) of 18.5 µg/mL (≈ 50.6 µM) and an MIC (Pseudomonas aeruginosa [4]) of 4.63 µg/mL (≈ 12.7 µM). The MIC (Pseudomonas aeruginosa [5]) was 18.5 µg/mL (≈ 50.6 µM), the MIC (Pseudomonas aeruginosa [6]) was 18.5 µg/mL (≈ 50.6 µM) and the MIC (Pseudomonas aeruginosa [7]) was 18.5 µg/mL (≈ 50.6 µM). It also gave an MIC (Pseudomonas aeruginosa [8]) of 18.5 µg/mL (≈ 50.6 µM), an MIC (Pseudomonas aeruginosa [9]) of 18.5 µg/mL (≈ 50.6 µM) and an MIC (Pseudomonas aeruginosa [10]) of 18.5 µg/mL (≈ 50.6 µM). The MIC (Pseudomonas aeruginosa [11]) was 18.5 µg/mL (≈ 50.6 µM), the MIC (Pseudomonas aeruginosa [12]) was 18.5 µg/mL (≈ 50.6 µM) and the MIC (Pseudomonas aeruginosa [13]) was 9.25 µg/mL (≈ 25.3 µM). It also gave an MIC (Pseudomonas aeruginosa [14]) of 18.5 µg/mL (≈ 50.6 µM), an MIC (Pseudomonas aeruginosa [15]) of 18.5 µg/mL (≈ 50.6 µM) and an MIC (Pseudomonas aeruginosa [16]) of 18.5 µg/mL (≈ 50.6 µM). It also gave an MIC (Escherichia coli [17]) of 4.63 µg/mL (≈ 12.7 µM), an MIC (Staphylococcus aureus [18]) of 9.25 µg/mL (≈ 25.3 µM) and an MIC [19] of 9.25 µg/mL (≈ 25.3 µM). It also gave an MIC (Porphyromonas gingivalis [1]) of 4.63 µg/mL (≈ 12.7 µM), an MBIC (Pseudomonas aeruginosa [20]) of 18.5 µg/mL and an MBIC90 (Escherichia coli [21]) of 2.22 µg/mL. The MBIC (Staphylococcus aureus [22]) was 9.25 µg/mL, the MBIC [23] was 9.25 µg/mL and the MBIC (Porphyromonas gingivalis [24]) was 5.11 µg/mL. For the same molecule, the Activity (Pseudomonas aeruginosa [25]) was “Active”, the “inhibition (INH)” value (Pseudomonas aeruginosa [26]) was 50% and the Activity (Pseudomonas aeruginosa [27]) was “Active”. The Activity (Pseudomonas aeruginosa [28]) was “Active”, the viability at 2 h, 4.63 ug/ml [29] was over 80% and the viability at 2 h, 4.63 ug/ml [30] was over 80%. For the same molecule, the Activity [31] was “Toxic” and the Activity [32] was “Non-toxic”.

`OC(CN1CCCCC1)Cn1c2ccc(Cl)cc2c2cc(Cl)ccc21` (stereo not drawn) showed an MIC (Pseudomonas aeruginosa [2]) of 74 µg/mL (≈ 196 µM).

GENTAMICIN gave an MIC (Staphylococcus aureus [18]) of 12.5 µg/mL.

For `OCCN(CCO)CC(O)Cn1c2ccc(Cl)cc2c2cc(Cl)ccc21` (stereo not drawn), the MIC (Pseudomonas aeruginosa [2]) was over 74 µg/mL.

`CC1COc2c(N3CCN(C)CC3)c(F)cc3c(=O)c(C(=O)O)cn1c23` (stereo not drawn) [OFLOXACIN] showed an MIC (Escherichia coli [17]) of 0.1 µg/mL (≈ 0.277 µM).

Work on `O=C(O)c1cn(C2CC2)c2cc(N3CCNCC3)c(F)cc2c1=O` [CIPROFLOXACIN] yielded an MIC [19] of 1.56 µg/mL (≈ 4.71 µM).

With `CCN(CC)CC(O)Cn1c2ccc(Cl)cc2c2cc(Cl)ccc21` (stereo not drawn) the MIC (Pseudomonas aeruginosa [2]) was 37 µg/mL (≈ 101 µM).

`CN(CCO)CC(O)Cn1c2ccc(Cl)cc2c2cc(Cl)ccc21` (stereo not drawn) gave an MIC (Pseudomonas aeruginosa [2]) of 18.5 µg/mL (≈ 50.4 µM).

Molecule `OC(CNCC1CCCO1)Cn1c2ccc(Cl)cc2c2cc(Cl)ccc21` (stereo not drawn) has an MIC (Pseudomonas aeruginosa [2]) of 18.5 µg/mL (≈ 47 µM).

In the case of `OCCn1c2ccccc2c2cc(Cl)ccc21`, the MIC (Pseudomonas aeruginosa [2]) is reported as 18.5 µg/mL (≈ 75.3 µM).
